Data as given in US11234971B2, “Methods of treating cancer comprising administration of a glucocorticoid receptor modulator and a cancer chemotherapy agent” (Corcept Therapeutics Incorporated, priority 2018, dated 2022).

Assays:
[1] = tested on: OVCAR-5 human ovarian cancer cells; experiment: OVCAR-5 cell growth (Cell Titer-Glo) with chemotherapy agents with or without dexamethasone and relacorilant; assay type: cell-based; settings: for IC50 (decrease in IC50 of the agent from dexamethasone-alone to relacorilant + dexamethasone) / Max effect (increase in maximal cell toxicity of the agent from dexamethasone-alone to relacorilant + dexamethasone): OVCAR-5, 100 nM dexamethasone, 300 nM relacorilant; for Max effect (increase in maximal cell toxicity of the agent from dexamethasone-alone to relacorilant + dexamethasone): high doses of chemotherapeutic
Protocol: The initial cell density was chosen to be low enough to allow for several population doublings (typically 3 to 5) during the indicated incubation period. […] After 48 hours of incubation, serially diluted test agents in growth medium were added to each well. After 72 hours of culture, the plated cells and Cell Titer-Glo® (Promega G7571) reagents were brought to room temperature to equilibrate for 30 minutes. 200 μL of Cell Titer-Glo® reagent was then added to each well, the plate was shaken for two minutes, and then left to equilibrate for ten minutes. The Cell Titer-Glo® cell viability assay uses ATP levels to determine cell numbers. After this equilibration, luminescence was read on the Biotech Synergy II microplate reader. The percent control (% C) of cell growth for each test concentration was calculated relative to untreated wells. All tests were performed in quadruplicate. Individual assay plates were evaluated for appropriate signal and well-to-well variance in the control wells for quality control.

[2] = tested on: whole blood gene expression; experiment: Whole blood gene expression after 28 days of enzalutamide in cancer patients; assay type: in vivo; settings: human cancer patients, all p-values greater than 0.5
Source text: Enzalutamide is an androgen receptor antagonist used in the treatment of hormone-sensitive cancers such as prostate cancer. […] The small circular markers indicate the change in gene expression for individual genes. None of the gene expression levels changes following enzalutamide (as compared to baseline levels) reach significance (all p-values are greater than 0.5).

MIA PaCa-2 xenograft = MIA PaCa-2 xenograft tumor growth in immunodeficient mice; assay type: in vivo; settings: single agent
Source text: The present example, Example 3, provides results of administration of the glucocorticoid receptor modulator relacorilant to cancerous cells. […] The MIA PaCa-2 xenograft model uses MIA PaCa-2 cell-line cells (pancreatic tumor cells derived from a pancreatic adenocarcinoma from a patient) engrafted into immunodeficient mice. The ovarian OVCAR-5 cell line is derived from a human epithelial carcinoma of the ovary, and was established from ascitic fluid obtained (prior to cytotoxic treatment) from a patient with progressive ovarian adenocarcinoma.
FIG. 10A. Relacorilant sensitizes the MIA PaCa-2 xenograft to paclitaxel. Tumor volume of PaCa-2 xenograft tumors implanted in immunodeficient mice is shown as a function of time (days) after implantation in the presence of vehicle (filled circles), paclitaxel (7.5 mg/kg; filled squares), relacorilant alone (upwardly pointing triangles), and relacorilant+7.5 mg/kg paclitaxel (downwardly pointing triangles). 7.5 mg/kg paclitaxel was administered three times (at the days indicated by the dashed vertical lines, indicating days 8, 12, and 16 following tumor implantation into the mice).
FIG. 10B. Relacorilant with Paclitaxel Reduces MIA PaCa-2 xenograft Tumor Volume. Initial tumor volume of PaCa-2 xenograft tumors implanted in immunodeficient mice was less than 400 cubic millimeters (mm^3). […] Tumor size progression is thus indicated by lines descending from the top (100%) value. The tumor-bearing mice were treated with vehicle, relacorilant (30 mg/kg every day), paclitaxel (three doses of 7.5 mg/kg paclitaxel, one dose administered on each of the days indicated in FIG. 10A), and the combination relacorilant (30 mg/kg every day) with paclitaxel (7.5 mg/kg doses of paclitaxel each administered on days 8, 12, and 16 post implantation). […] Xenograft tumor growth was slowed by combined relacorilant+paclitaxel as compared to either paclitaxel alone or relacorilant alone. Relacorilant thus enhanced sensitivity to paclitaxel in the pancreatic MIA PaCa-2 xenograft model.

| Structure (SMILES) | IC50 (decrease in IC50 of the agent from dexamethasone-alone to relacorilant + dexamethasone) [1] | Max effect (increase in maximal cell toxicity of the agent from dexamethasone-alone to relacorilant + dexamethasone) [1] | further results |
| --- | --- | --- | --- |
| O=c1[nH]cc(F)c(=O)[nH]1 [5-FU] | + (~10-59% decrease in IC50 from the dexamethasone-alone to the relacorilant + dexamethasone treatments) | − |  |
| Cc1c[nH]c(-c2cnc(NCCNc3ccc(C#N)cn3)nc2-c2ccc(Cl)cc2Cl)n1 [CHIR-99021] | − | − |  |
| CCN(CC)CCCC(C)Nc1ccnc2cc(Cl)ccc12 (stereo not shown) [Chloroquine] | − |  |  |
| COc1cccc2c1C(=O)c1c(O)c3c(c(O)c1C2=O)C[C@@](O)(C(=O)CO)C[C@@H]3O[C@H]1C[C@H](N)[C@H](O)[C@H](C)O1 [Doxorubicin] | + (~10-59% decrease in IC50 from the dexamethasone-alone to the relacorilant + dexamethasone treatments) |  |  |
| C=C1C[C@@H]2CC[C@@]34C[C@H]5O[C@H]6[C@@H](O3)[C@H]3O[C@H](CC[C@@H]3O[C@H]6[C@H]5O4)CC(=O)C[C@@H]3[C@@H](OC)[C@@H](C[C@H](O)CN)O[C@H]3C[C@H]3O[C@@H](CC[C@@H]1O2)C[C@@H](C)C3=C [Eribulin] | ++ (>60% decrease in IC50 from the dexamethasone-alone to the relacorilant + dexamethasone treatments) |  |  |
| C#Cc1cccc(Nc2ncnc3cc(OCCOC)c(OCCOC)cc23)c1 [Erlotinib] | − |  |  |
| COc1cc([C@@H]2c3cc4c(cc3[C@@H](O[C@@H]3O[C@@H]5CO[C@@H](C)O[C@H]5[C@H](O)[C@H]3O)[C@H]3COC(=O)[C@H]23)OCO4)cc(OC)c1O [Etoposide] | + (~10-59% decrease in IC50 from the dexamethasone-alone to the relacorilant + dexamethasone treatments) | − |  |
| O=C(O)c1ccc(-c2c[nH]c3ncc(-c4ccccc4)cc23)cc1C1CCCC1 [GSK650394] | − | − |  |
| CCc1c2c(nc3ccc(OC(=O)N4CCC(N5CCCCC5)CC4)cc13)-c1cc3c(c(=O)n1C2)COC(=O)[C@]3(O)CC [Irinotecan] | + (~10-59% decrease in IC50 from the dexamethasone-alone to the relacorilant + dexamethasone treatments) | − |  |
| CS(=O)(=O)CCNCc1ccc(-c2ccc3ncnc(Nc4ccc(OCc5cccc(F)c5)c(Cl)c4)c3c2)o1 [Lapatinib] | + (~10-59% decrease in IC50 from the dexamethasone-alone to the relacorilant + dexamethasone treatments) | − |  |
| O=C(c1cc(Cc2n[nH]c(=O)c3ccccc23)ccc1F)N1CCN(C(=O)C2CC2)CC1 [Olaparib] | − | − |  |
| Nc1nc2[nH]cc(CCc3ccc(C(=O)N[C@@H](CCC(=O)O)C(=O)O)cc3)c2c(=O)[nH]1 [Pemetrexed] | ++ (>60% decrease in IC50 from the dexamethasone-alone to the relacorilant + dexamethasone treatments) |  |  |
| CC(C)(C)c1[nH]cnc1/C=c1\[nH]c(=O)/c(=C/c2ccccc2)[nH]c1=O [Plinabulin] | − |  |  |
| CC(=O)Nc1cccc(-n2c(=O)n(C3CC3)c(=O)c3c(Nc4ccc(I)cc4F)n(C)c(=O)c(C)c32)c1 [Trametinib] | − | − |  |
| CC1(C)CCC(CN2CCN(c3ccc(C(=O)NS(=O)(=O)c4ccc(NCC5CCOCC5)c([N+](=O)[O-])c4)c(Oc4cnc5[nH]ccc5c4)c3)CC2)=C(c2ccc(Cl)cc2)C1 [Venetoclax] | + (~10-59% decrease in IC50 from the dexamethasone-alone to the relacorilant + dexamethasone treatments) | − |  |
| CCC1=C[C@@H]2CN(C1)Cc1c([nH]c3ccccc13)[C@@](C(=O)OC)(c1cc3c(cc1OC)N(C)[C@H]1[C@@](O)(C(=O)OC)[C@H](OC(C)=O)[C@]4(CC)C=CCN5CC[C@]31[C@@H]54)C2 [Vinorelbine] | + (~10-59% decrease in IC50 from the dexamethasone-alone to the relacorilant + dexamethasone treatments) |  |  |
| N.N.O=C([O-])C1(C(=O)[O-])CCC1.[Pt+2] [carboplatin] |  |  | cell viability ([1]; OVCAR-5 with 100 nM dexamethasone, 1 nM to 2187 nM carboplatin): dose dependent |
| N.N.[Cl][Pt][Cl] [cisplatin] | + (~10-59% decrease in IC50 from the dexamethasone-alone to the relacorilant + dexamethasone treatments) | + (consistent ~0-40% increase in toxicity at high doses of chemotherapeutic from the dexamethasone-alone to the relacorilant + dexamethasone treatments) |  |
| CNC(=O)c1ccc(N2C(=S)N(c3ccc(C#N)c(C(F)(F)F)c3)C(=O)C2(C)C)cc1F [enzalutamide] |  |  | changes in gene expression levels compared to baseline [2]: did not result in any significant changes |
| CC(=O)O[C@H]1C(=O)[C@@]2(C)[C@H]([C@H](OC(=O)c3ccccc3)[C@]3(O)C[C@H](OC(=O)[C@H](O)[C@@H](NC(=O)c4ccccc4)c4ccccc4)C(C)=C1C3(C)C)[C@]1(OC(C)=O)CO[C@@H]1C[C@@H]2O [paclitaxel] |  |  | tumor growth (tumor volume over time) (MIA PaCa-2 xenograft; paclitaxel 7.5 mg/kg on days 8, 12 and 16): ineffective in delaying tumor growth; time to progression (fraction of tumors whose volume remained below 400 mm^3) (MIA PaCa-2 xenograft; relacorilant 30 mg/kg every day or paclitaxel 7.5 mg/kg on days 8, 12, 16): ineffective alone in delaying tumor growth |
